The text below walks through data of US8501446B2 (Vertex Pharmaceuticals Incorporated, priority 2004, dated 2013).

Holding throughout (assay type): biochemical
The target of assay [1] is T1, JAK3 (Homo sapiens, UniProt P52333).
T1 sequence (P52333 1-1124): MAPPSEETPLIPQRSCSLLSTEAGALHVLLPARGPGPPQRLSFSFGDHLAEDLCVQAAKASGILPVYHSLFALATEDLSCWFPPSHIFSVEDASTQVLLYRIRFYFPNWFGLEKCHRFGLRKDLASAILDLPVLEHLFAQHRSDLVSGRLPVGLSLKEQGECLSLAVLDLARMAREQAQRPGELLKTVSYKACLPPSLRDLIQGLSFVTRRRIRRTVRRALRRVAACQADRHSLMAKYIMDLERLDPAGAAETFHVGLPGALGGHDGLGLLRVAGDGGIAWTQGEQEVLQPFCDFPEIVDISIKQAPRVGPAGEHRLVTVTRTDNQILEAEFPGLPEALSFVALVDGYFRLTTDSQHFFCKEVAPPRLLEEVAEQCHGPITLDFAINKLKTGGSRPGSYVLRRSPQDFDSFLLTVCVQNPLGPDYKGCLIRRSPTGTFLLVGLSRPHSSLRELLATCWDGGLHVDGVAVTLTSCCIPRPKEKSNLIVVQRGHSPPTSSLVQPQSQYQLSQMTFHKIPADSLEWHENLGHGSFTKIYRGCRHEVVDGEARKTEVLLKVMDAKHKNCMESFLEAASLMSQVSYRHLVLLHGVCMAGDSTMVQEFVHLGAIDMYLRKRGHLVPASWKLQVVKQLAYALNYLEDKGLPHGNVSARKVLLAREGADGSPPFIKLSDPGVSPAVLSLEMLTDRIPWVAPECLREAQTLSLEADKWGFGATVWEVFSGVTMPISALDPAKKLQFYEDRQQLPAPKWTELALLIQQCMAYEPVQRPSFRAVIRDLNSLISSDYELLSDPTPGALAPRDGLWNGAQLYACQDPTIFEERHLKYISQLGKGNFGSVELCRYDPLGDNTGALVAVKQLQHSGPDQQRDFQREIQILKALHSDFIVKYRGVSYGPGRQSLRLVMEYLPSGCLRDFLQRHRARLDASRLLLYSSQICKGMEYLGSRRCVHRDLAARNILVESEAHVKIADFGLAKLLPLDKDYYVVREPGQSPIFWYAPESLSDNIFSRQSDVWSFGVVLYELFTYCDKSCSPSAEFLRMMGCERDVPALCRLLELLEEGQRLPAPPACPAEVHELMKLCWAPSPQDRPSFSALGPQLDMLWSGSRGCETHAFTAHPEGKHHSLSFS
Nature of the assay: JAK3 inhibition assay (standard radioactive enzyme assay). Conditions: average Ki if more than one value determined.

For assay [2], the target named is T2, full length Aurora-A (AA 1-403) (Homo sapiens, UniProt O14965).
T2 construct: full length Aurora-A (AA 1-403)
T2 sequence (O14965 1-403): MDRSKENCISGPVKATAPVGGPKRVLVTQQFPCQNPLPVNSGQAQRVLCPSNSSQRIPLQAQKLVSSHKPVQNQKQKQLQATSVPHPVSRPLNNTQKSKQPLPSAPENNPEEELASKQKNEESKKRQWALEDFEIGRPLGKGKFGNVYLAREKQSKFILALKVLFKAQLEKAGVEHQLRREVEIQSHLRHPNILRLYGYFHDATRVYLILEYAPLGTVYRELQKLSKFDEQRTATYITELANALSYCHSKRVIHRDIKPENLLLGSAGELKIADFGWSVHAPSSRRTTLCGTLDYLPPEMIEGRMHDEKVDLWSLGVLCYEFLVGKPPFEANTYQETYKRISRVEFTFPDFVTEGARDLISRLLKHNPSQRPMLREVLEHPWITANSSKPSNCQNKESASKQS
Nature of the assay: Aurora-A inhibition assay, standard coupled enzyme system. As to conditions: average Ki if more than one value determined.

Assay [3] concerns the target JAK2 (Homo sapiens, UniProt O60674). The experiment in a line: JAK2 inhibition assay (radioactive enzyme assay, as for JAK3). As to conditions: average Ki if more than one value determined. In a few lines: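 Both kinases: poly(Glu)4Tyr substrate in 100 mM HEPES pH 7.4, 10 mM MgCl2, 1 mM DTT. Run 20 min at 25° C, TCA stop, filter-bound ³³P counted, Ki(app) fitted after background subtraction. JAK3: final [γ-³³P]ATP 5 μM, enzyme added as 2 nM solution. JAK2: final poly(Glu)4Tyr 15 μM, final ATP 12 μM.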

Assay [4] addresses T3, ROCK I (AA 6-553) (Homo sapiens, UniProt Q13464).
T3 construct: ROCK I (AA 6-553)
The experiment in a line: ROCK inhibition assay, standard coupled enzyme system ("Enzyme"). As to conditions: enzyme-linked assay. In outline:
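ROCK I (AA 6-553) at 45 nM and 30 °C with 45 μM ATP and 200 μM peptide, in 100 mM HEPES pH 7.5, 10 mM MgCl2, 25 mM NaCl, 2 mM DTT, 1.5% DMSO. ADP output read by a PK/LDH coupled system: 2.5 mM PEP, 350 μM NADH, 30 μg/ml PK, 10 μg/ml LDH.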

Structures are written as SMILES. Where only a bound is given, the exact number is not on record here.

Sequence of JAK2 (O60674 whole entry, species assumed): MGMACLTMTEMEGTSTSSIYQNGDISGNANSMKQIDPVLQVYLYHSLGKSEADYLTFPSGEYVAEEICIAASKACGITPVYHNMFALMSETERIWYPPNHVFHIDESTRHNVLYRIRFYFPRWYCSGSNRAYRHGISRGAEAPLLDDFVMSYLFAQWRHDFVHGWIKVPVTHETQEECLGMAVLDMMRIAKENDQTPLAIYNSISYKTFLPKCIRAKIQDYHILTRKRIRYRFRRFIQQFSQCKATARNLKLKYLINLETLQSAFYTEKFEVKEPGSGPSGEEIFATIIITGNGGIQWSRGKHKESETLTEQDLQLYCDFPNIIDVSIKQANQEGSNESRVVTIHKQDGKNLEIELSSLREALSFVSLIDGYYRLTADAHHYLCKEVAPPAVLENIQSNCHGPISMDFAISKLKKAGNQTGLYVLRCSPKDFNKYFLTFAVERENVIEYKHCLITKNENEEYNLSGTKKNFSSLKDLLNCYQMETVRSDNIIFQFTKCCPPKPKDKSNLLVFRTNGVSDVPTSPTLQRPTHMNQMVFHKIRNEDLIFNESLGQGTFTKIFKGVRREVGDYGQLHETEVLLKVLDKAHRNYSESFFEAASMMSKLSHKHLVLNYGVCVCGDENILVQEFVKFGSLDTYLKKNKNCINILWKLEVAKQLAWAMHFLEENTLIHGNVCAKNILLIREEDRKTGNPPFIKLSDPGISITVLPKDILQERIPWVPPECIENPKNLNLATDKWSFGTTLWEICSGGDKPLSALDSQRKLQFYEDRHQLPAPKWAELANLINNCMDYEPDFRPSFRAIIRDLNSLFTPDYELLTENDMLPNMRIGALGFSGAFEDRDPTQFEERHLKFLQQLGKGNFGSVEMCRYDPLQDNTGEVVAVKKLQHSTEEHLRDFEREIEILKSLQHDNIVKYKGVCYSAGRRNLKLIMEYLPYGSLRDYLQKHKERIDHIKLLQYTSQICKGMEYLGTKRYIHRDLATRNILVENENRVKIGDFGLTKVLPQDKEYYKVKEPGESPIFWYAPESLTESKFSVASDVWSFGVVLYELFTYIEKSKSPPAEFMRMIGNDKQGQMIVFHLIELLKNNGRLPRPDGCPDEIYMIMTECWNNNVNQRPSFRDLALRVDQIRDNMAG
T3 sequence (Q13464 6-553, species assumed): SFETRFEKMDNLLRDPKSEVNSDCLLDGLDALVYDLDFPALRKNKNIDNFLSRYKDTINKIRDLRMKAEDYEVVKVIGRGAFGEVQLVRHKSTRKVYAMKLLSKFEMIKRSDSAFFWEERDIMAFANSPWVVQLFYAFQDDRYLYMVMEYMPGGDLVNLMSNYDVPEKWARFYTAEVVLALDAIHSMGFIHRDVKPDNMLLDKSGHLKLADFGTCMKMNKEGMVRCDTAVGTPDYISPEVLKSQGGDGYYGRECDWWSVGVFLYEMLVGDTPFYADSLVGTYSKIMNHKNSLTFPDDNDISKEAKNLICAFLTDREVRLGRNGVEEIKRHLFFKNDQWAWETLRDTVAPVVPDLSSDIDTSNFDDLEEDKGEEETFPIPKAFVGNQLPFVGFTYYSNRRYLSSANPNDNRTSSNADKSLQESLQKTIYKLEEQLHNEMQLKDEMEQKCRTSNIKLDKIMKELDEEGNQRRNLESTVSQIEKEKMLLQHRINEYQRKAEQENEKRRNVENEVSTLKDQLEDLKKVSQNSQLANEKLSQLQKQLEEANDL

Regarding `O=C(O)c1cc(Br)cc(-c2c[nH]c3ncc(Cl)cc23)c1` [Compound 177], the Ki in assay [1] is less than 500 nM; in assay [2] it was less than 500 nM; in assay [3], less than 500 nM; in assay [4], 500 to 5000 nM.

On to `CC(=O)N1[C@H](C)CN(c2ccc(C#N)c(-c3c[nH]c4ncc(Cl)cc34)n2)C[C@@H]1C` [Compound 93], for which the Ki in assay [1] is less than 500 nM; in assay [2], less than 500 nM; in assay [3], less than 500 nM; in assay [4] it was 500 to 5000 nM.

In the case of `COCC(=O)Nc1cnc2[nH]cc(-c3cccc(N4C[C@@H](C)N(C(C)=O)[C@@H](C)C4)n3)c2c1` [Compound 170], the Ki in assay [1] is less than 500 nM; in assay [2], 500 to 5000 nM; in assay [3] it was less than 500 nM; in assay [4], 500 to 5000 nM.

With `CC(=O)N1[C@H](C)CN(c2cccc(-c3c[nH]c4ncc(C(=O)NC5CCCCC5)cc34)n2)C[C@@H]1C` [Compound 58], the inhibition constant (Ki) is less than 500 nM in assay [1], 500 to 5000 nM in assay [2], less than 500 nM in assay [3] and 500 to 5000 nM in assay [4].

For the molecule `CC(=O)N1[C@H](C)CN(c2cc(C(N)=O)cc(-c3c[nH]c4ncc(Cl)cc34)n2)C[C@@H]1C` [Compound 97], the inhibition constant Ki in assay [1] was less than 500 nM; in assay [2], less than 500 nM; in assay [3] it was less than 500 nM; in assay [4], 500 to 5000 nM.

In the case of `CNC(=O)c1cnc2[nH]cc(-c3cccc(N4C[C@@H](C)N(C(C)=O)[C@@H](C)C4)n3)c2c1` [Compound 59], the Ki was less than 500 nM in assay [1], 500 to 5000 nM in assay [2], less than 500 nM in assay [3] and 500 to 5000 nM in assay [4].

For `CC(=O)N1[C@H](C)CN(c2nc(-c3c[nH]c4ncc(Cl)cc34)c(F)cc2C(N)=O)C[C@@H]1C` [Compound 72], the Ki is less than 500 nM in assay [1], less than 500 nM in assay [2], 500 to 5000 nM in assay [3] and 500 to 5000 nM in assay [4].

For the molecule `CC(=O)N1[C@H](C)CN(c2cccc(-c3c[nH]c4ncc(NC(=O)C5CCCC5)cc34)n2)C[C@@H]1C` [Compound 166], the Ki in assay [1] is less than 500 nM; in assay [2], 500 to 5000 nM; in assay [3] it was less than 500 nM; in assay [4] it was 500 to 5000 nM.

In the case of `C[C@@H](Nc1cccc(-c2c[nH]c3ncc(Cl)cc23)n1)c1ccc(F)cc1` [Compound 131], the Ki in assay [1] was less than 500 nM; in assay [2] it was less than 500 nM; in assay [3], less than 500 nM; in assay [4] it was 500 to 5000 nM.

Regarding `CCOC(=O)Nc1cnc2[nH]cc(-c3cccc(N4C[C@@H](C)N(C(C)=O)[C@@H](C)C4)n3)c2c1` [Compound 70], the Ki is less than 500 nM in assay [1], 500 to 5000 nM in assay [2], less than 500 nM in assay [3] and 500 to 5000 nM in assay [4].

Regarding `COC(=O)c1ccc(-c2c[nH]c3ncc(Cl)cc23)nc1NCc1ccccc1` [Compound 43], the Ki is 500 to 5000 nM in assay [1], less than 500 nM in assay [2], 500 to 5000 nM in assay [3] and 500 to 5000 nM in assay [4].

In the case of `CC(=O)N1[C@H](C)CN(c2cccc(-c3c[nH]c4ncc(NC(=O)CCCN5CCOCC5)cc34)n2)C[C@@H]1C` [Compound 153], the Ki in assay [1] was less than 500 nM; in assay [2] it was 500 to 5000 nM; in assay [3] it was less than 500 nM; in assay [4], 500 to 5000 nM.

Take `CCC(=O)Nc1cnc2[nH]cc(-c3cccc(N4C[C@@H](C)N(C(C)=O)[C@@H](C)C4)n3)c2c1` [Compound 114]: the Ki in assay [1] was less than 500 nM; in assay [2], 500 to 5000 nM; in assay [3], less than 500 nM; in assay [4] it was 500 to 5000 nM.

Turning to `CC(=O)N1[C@H](C)CN(c2cccc(-c3c[nH]c4ncc(NC(=O)CCN5CCOCC5)cc34)n2)C[C@@H]1C` [Compound 121], the Ki was less than 500 nM in assay [1], 500 to 5000 nM in assay [2], less than 500 nM in assay [3] and 500 to 5000 nM in assay [4].

Consider `C[C@@H](CO)Nc1cccc(-c2c[nH]c3ncc(Cl)cc23)n1` [Compound 103], for which the Ki is less than 500 nM in assay [1], 500 to 5000 nM in assay [2], less than 500 nM in assay [3] and 500 to 5000 nM in assay [4].

As for `C=C(C)C(=O)Nc1cnc2[nH]cc(-c3cccc(N4C[C@@H](C)N(C(C)=O)[C@@H](C)C4)n3)c2c1` [Compound 154], the Ki in assay [1] was less than 500 nM; in assay [2] it was 500 to 5000 nM; in assay [3] it was less than 500 nM; in assay [4], 500 to 5000 nM.

As for `C/C=C(\C)C(=O)Nc1cnc2[nH]cc(-c3cccc(N4C[C@@H](C)N(C(C)=O)[C@@H](C)C4)n3)c2c1` [Compound 161], the Ki was less than 500 nM in assay [1], 500 to 5000 nM in assay [2], less than 500 nM in assay [3] and 500 to 5000 nM in assay [4].

`CC(=O)N1CCCN(c2cccc(-c3c[nH]c4ncc(C(=O)NCCN5CCOCC5)cc34)n2)CC1` [Compound 124]: the Ki is less than 500 nM in assay [1], 500 to 5000 nM in assay [2], less than 500 nM in assay [3] and 500 to 5000 nM in assay [4].

Regarding `O[C@H]1CCCC[C@@H]1Nc1cccc(-c2c[nH]c3ncc(Cl)cc23)n1` [Compound 132], the Ki in assay [1] was less than 500 nM; in assay [2], less than 500 nM; in assay [3], less than 500 nM; in assay [4], 500 to 5000 nM.

`CN(C)c1cccc(-c2c[nH]c3ncc(Cl)cc23)n1` [Compound 122]: the Ki is less than 500 nM in assay [1], 500 to 5000 nM in assay [2], less than 500 nM in assay [3] and 500 to 5000 nM in assay [4].

Consider `CC(=O)N1CCCN(c2cccc(-c3c[nH]c4ncc(C(=O)NCCCN5CCN(C)CC5)cc34)n2)CC1` [Compound 125], for which the Ki in assay [1] was less than 500 nM; in assay [2], 500 to 5000 nM; in assay [3], less than 500 nM; in assay [4] it was 500 to 5000 nM.

In the case of `CC(=O)N1[C@H](C)CN(c2cccc(-c3c[nH]c4ncc(F)cc34)n2)C[C@@H]1C` [Compound 50], the Ki in assay [1] was less than 500 nM; in assay [2], 500 to 5000 nM; in assay [3] it was less than 500 nM; in assay [4], less than 500 nM.

For the molecule `CC(=O)N1[C@H](C)CN(c2cccc(-c3c[nH]c4ncc(NC(=O)c5cccc(C#N)c5)cc34)n2)C[C@@H]1C` [Compound 179], the Ki in assay [1] is less than 500 nM; in assay [2], 500 to 5000 nM; in assay [3], less than 500 nM; in assay [4], 500 to 5000 nM.

As to `CC(=O)N1[C@H](C)CN(c2nc(-c3c[nH]c4ncc(Cl)cc34)cc(C)c2C#N)C[C@@H]1C` [Compound 79], the Ki is less than 500 nM in assay [1], less than 500 nM in assay [2], less than 500 nM in assay [3] and 500 to 5000 nM in assay [4].
